system: CCRF-CEM cells; test: Time-dependent antiproliferative activity assay (MTS); type: cell-based, human; details: drug 5 µM, [(WR)5C]-GdNPs 50 µM, 72 h incubation, MTS 490 nm, triplicate (n = 3)
Procedure: Antiproliferative activities of several anticancer drugs, including epirubicin, cisplatin, gemcitabine, etoposide, carboplatin and camptothecin, were evaluated in the presence and absence of [(WR)5C]-GdNPs in CCRF-CEM cells. Different time periods, including 24, 48 and 72 h, were selected. The CellTiter 96 aqueous one solution cell proliferation assay kit (Promega, Madison, WI, USA) was used for the assay. The CCRF-CEM cells (5 × 10^4) were seeded in 100 µL of the media. The cells then placed in each well of the 96-well culture plate. The cells were incubated with drugs alone and [(WR)5C]-GdNPs-loaded drugs at a similar condition in triplicates. To confirm the results, DMSO (1% in water) was used as a control. To entrap the drug, the physical mixing method was used. A calculated volume of the drug solution was mixed with the desired volume of an aqueous solution of [(WR)5C]-GdNPs physically to obtain a final concentration of the drug (5 μM) and the [(WR)5C]-GdNPs (50 μM). The mixture was vortexed until the solution became homogeneous and clear. The mixture was incubated for 30 min at room temperature before adding to the cells to obtain optimized performance. The incubation of cells with their treatments was carried out at 37 °C for 24–72 h. The cell viability assay was performed by adding 20 μL of CellTiter 96 aqueous solution. The cells were incubated for another hour with the MTS reagent. The formazan absorbance was measured at 490 nm by a microplate reader. The percentage of cell survival was calculated as previously reported.
Several anticancer drugs such as epirubicin, cisplatin, gemcitabine, etoposide, carboplatin and camptothecin were evaluated for their antiproliferative activities at different time periods, including 24, 48 and 72 h. […] The improved antiproliferative activity of cisplatin and carboplatin could be due to the chelating of the thiol group of cysteine with these anticancer agents or binding of metals to peptides as GdNPs. […]

| SMILES | enhancement of antiproliferative potency in the presence of [(WR)5C]-GdNPs [%] |
| --- | --- |
| CC[C@@]1(O)C(=O)OCc2c1cc1n(c2=O)Cc2cc3ccccc3nc2-1 [camptothecin] | 8 |
| COc1cc([C@@H]2c3cc4c(cc3[C@@H](O[C@@H]3O[C@@H]5CO[C@@H](C)O[C@H]5[C@H](O)[C@H]3O)[C@H]3COC(=O)[C@H]23)OCO4)cc(OC)c1O [etoposide] | 2 |
| COc1cccc2c1C(=O)c1c(O)c3c(c(O)c1C2=O)C[C@@](O)(C(=O)CO)C[C@@H]3O[C@H]1C[C@H](N)[C@@H](O)[C@H](C)O1 [epirubicin] | 6 |

Reference: publication PMC7557599, “Cyclic Peptide-Gadolinium Nanoparticles for Enhanced Intracellular Delivery” (Pharmaceutics, 2020)
